Details: 323.14 K, Liquid, Vibrating tube method

CCCC(=O)OCC(COC(=O)CCC)(COC(=O)CCC)COC(=O)CCC [pentaerythritol tetrabutyrate]
Details | mass density [kg/m3]
17664 kPa | 1037.3
17706 kPa | 1037.2
17742 kPa | 1037.4
17779 kPa | 1037.3
17823 kPa | 1037.3
17860 kPa | 1037.3
17896 kPa | 1037.3
17933 kPa | 1037.5
17977 kPa | 1037.4
18014 kPa | 1037.5
18060 kPa | 1037.4
18099 kPa | 1037.5
18137 kPa | 1037.5
18184 kPa | 1037.6
18224 kPa | 1037.5
18264 kPa | 1037.7
18304 kPa | 1037.6
18346 kPa | 1037.8
18376 kPa | 1037.8
18470 kPa | 1037.7
18504 kPa | 1037.6
18534 kPa | 1037.7
18564 kPa | 1037.8
18600 kPa | 1037.9
18629 kPa | 1037.8
18660 kPa | 1037.9
18695 kPa | 1037.8
18793 kPa | 1037.9
18818 kPa | 1038
18855 kPa | 1038
18891 kPa | 1038
18922 kPa | 1037.9
18954 kPa | 1038
18986 kPa | 1038.2
19023 kPa | 1038
19055 kPa | 1038
19093 kPa | 1038.2
19125 kPa | 1038.1
19157 kPa | 1038.1
19219 kPa | 1038.2
19363 kPa | 1038.3
19716 kPa | 1038.6
19756 kPa | 1038.7
19790 kPa | 1038.6
19824 kPa | 1038.7
19866 kPa | 1038.6
19901 kPa | 1038.7
19935 kPa | 1038.8
20012 kPa | 1038.8
20274 kPa | 1038.9
20318 kPa | 1038.9
20356 kPa | 1038.9
20392 kPa | 1038.9
20429 kPa | 1039.1
20472 kPa | 1039.1
20510 kPa | 1039
20629 kPa | 1039.2
20667 kPa | 1039.1
20706 kPa | 1039.2
20751 kPa | 1039.2
20789 kPa | 1039.2
20828 kPa | 1039.3
20869 kPa | 1039.3
20908 kPa | 1039.4
20954 kPa | 1039.3
20992 kPa | 1039.4
21039 kPa | 1039.3
21079 kPa | 1039.4
21117 kPa | 1039.6
21156 kPa | 1039.4
21204 kPa | 1039.5
21243 kPa | 1039.5
21283 kPa | 1039.5
21333 kPa | 1039.5
21374 kPa | 1039.6
21416 kPa | 1039.6
21465 kPa | 1039.7
21508 kPa | 1039.7
21593 kPa | 1039.7
22639 kPa | 1040.4
22677 kPa | 1040.4
22723 kPa | 1040.4
22761 kPa | 1040.5
22807 kPa | 1040.5
22845 kPa | 1040.5
22884 kPa | 1040.5
22932 kPa | 1040.5
22972 kPa | 1040.6
23010 kPa | 1040.7
23051 kPa | 1040.6
23098 kPa | 1040.7
23137 kPa | 1040.7
23185 kPa | 1040.7
23224 kPa | 1040.8
23265 kPa | 1040.8
23314 kPa | 1040.8
23354 kPa | 1040.9
23396 kPa | 1040.8
23445 kPa | 1040.8
23487 kPa | 1041
23528 kPa | 1040.9
23578 kPa | 1041
23620 kPa | 1041
23662 kPa | 1041.1
23705 kPa | 1041
23756 kPa | 1041.1
23800 kPa | 1041.1
24059 kPa | 1041.3
24170 kPa | 1041.4
24213 kPa | 1041.4
24248 kPa | 1041.5
24441 kPa | 1041.6
24478 kPa | 1041.6
24516 kPa | 1041.6
24554 kPa | 1041.6
24598 kPa | 1041.7
24634 kPa | 1041.6
24671 kPa | 1041.6
24708 kPa | 1041.8
24752 kPa | 1041.8
24955 kPa | 1041.8
24993 kPa | 1041.9
25031 kPa | 1041.9
25070 kPa | 1041.9
25108 kPa | 1041.9
25155 kPa | 1042.1
25193 kPa | 1042
25232 kPa | 1042
25278 kPa | 1042
25825 kPa | 1042.4
25865 kPa | 1042.5
25913 kPa | 1042.5
25954 kPa | 1042.5
25996 kPa | 1042.5
26045 kPa | 1042.6
26086 kPa | 1042.6
26129 kPa | 1042.6
26170 kPa | 1042.7
26220 kPa | 1042.7
26262 kPa | 1042.7
26305 kPa | 1042.7
26355 kPa | 1042.7
26397 kPa | 1042.8
26448 kPa | 1042.8
26490 kPa | 1042.8
26533 kPa | 1042.9

Source: the NIST ThermoML archive (doi:10.1021/je060271a)
